Data: PubChem BioAssay (NCI)
Values joined by “and” are separate entries in the source; they are usually repeats but may differ in a detail not shown here. Equal entries are not always repeated.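 Results reflect a 48-hour exposure of cells in 96-well plates to compound at five concentrations. The concentration for full growth arrest is given as TGI.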

Each molecule was assayed on CCRF-CEM leukemia (assay: NCI-60 cell line screen, 48 h).

`O=C1CCSCCC(=O)Nc2ccccc2N1` and `Cc1[nH]n(-c2nc(O)c(-c3ccccc3)c(=O)[nH]2)c(=O)c1CCO` cannot be ordered by TGI: > 100 µM for the first, > 100 µM for the second.

`COc1ccc(N2C(=O)C(=O)N(c3ccc(N=Nc4ccccc4)cc3)C2=S)cc1` and `COc1ccc2nc3cc(Cl)ccc3c(Sc3ccc(NC(C)=O)cc3)c2c1` cannot be ordered by TGI: > 100 µM for the first, > 100 µM for the second.

`Cc1ccc(CSC(N)=Nc2ccccc2)cc1C` and `Cc1n[n+](Cc2ccccc2)c2sc(N)nn12` cannot be ordered by TGI: > 100 µM for the first, > 100 µM for the second.

`COc1cccc(-c2nc(-c3cnccn3)n(C/C=C/c3ccccc3)n2)c1` and `COCn1cnc2c(=O)nc(SC)n(-c3ccccc3)c21` cannot be ordered by TGI: > 10 µM for the first, > 100 µM for the second.

`Nc1c(S(=O)(=O)c2ccccc2)c2nc3ccccc3nc2n2c1nc1ccccc12` and `NC1(CCNC(=O)c2ccccc2)CCN(C(=O)c2ccccc2)CC1` cannot be ordered by TGI: > 100 µM for the first, > 100 µM for the second.

`CC(NC(=O)Cc1ccccc1)NC(=O)C(C)C(=O)NCc1ccccc1` (configuration not stated) and `COC(=O)N[C@H](C(=O)NC(OCc1ccccc1)C1COC(C)(C)O1)C(C)O[Si](C)(C)C(C)(C)C` (some centres not stated) cannot be ordered by TGI: > 100 µM for the first, > 100 µM for the second.

First: O=C1C(Br)=CC2(C=C1Br)CCNC1=C2C(=O)c2ncccc2C1=O
Second: CC(NC(=O)c1c(O)[nH]c(=S)[nH]c1=O)c1ccc([N+](=O)[O-])cc1 (configuration not stated)
The TGI of the first is lower: 6.82 µM for the first, > 100 µM for the second.

`CCCCC1Cc2cc(O)ccc2-c2nc3cc(O)ccc3n21` (configuration not stated) (tested in a mixture with another compound) and `O=Cc1ccc(-c2ccc(-c3ccc(CO)s3)o2)s1` cannot be ordered by TGI: 51.8 µM for the first, > 23.7 µM for the second.

Compared with `CC(=O)c1c(N=[N+]=[N-])c2cccc3c2n(c1=O)CCC3`, `O=C(NCCN1CCOCC1)c1ccc(I)cc1` is higher in TGI: 51.8 µM for the first, > 100 µM for the second.

`CC(=O)O[C@]12CCCCCC1C1(O)C(O)CCCCC12` (some centres not stated) and `CC(=O)Nc1c(C(=N)C#N)ncn1CCO` cannot be ordered by TGI: > 100 µM for the first, > 100 µM for the second.

`CN1CC=C(c2c(N)nc(N)[nH]c2=O)CC1` and `CN1CCc2c(sc3[nH]c(=S)[nH]c(=S)c23)C1` cannot be ordered by TGI: > 100 µM for the first, > 100 µM for the second.

For `CCC1CC(O)c2c(O)c3c(c(O)c2C1O)C(=O)c1cccc(O)c1C3=O` (configuration not stated) (tested in a mixture with another compound), the TGI was 0.085 µM and 0.0441 µM.

What follows are molecules tested on NCI-H460 lung (assay: NCI-60 cell line screen, 48 h).

`CC(=O)O[C@@]12CO[C@@H]1CC(O)[C@@]1(C)C(=O)[C@H](O)C3=C(C)C(O)C[C@@](O)(C(OC(=O)c4ccccc4)C12)C3(C)C` (some centres not stated) and `C=C1CC[C@H]2C(=O)OC(c3ccoc3)C[C@]2(C)C/C=C\C=C/1C(=O)OC` (some centres not stated) cannot be ordered by TGI: > 100 µM for the first, > 25 µM for the second.

Compared with `COc1ccc(CNc2nc(NC3CCCCC3)nc(NC3CCCCC3)n2)cc1`, `C=C1CCCCCCCCC/C=C/1SCCCSC` is higher in TGI: 15.6 µM for the first, > 100 µM for the second.

Going from `CN(C)CCCNc1ccc2ncn3c4ccc(O)cc4c(=O)c1c23` to `CCCCC1Cc2cc(O)ccc2-c2nc3cc(O)ccc3n21` (configuration not stated) (tested in a mixture with another compound), the TGI rises from 4.56 µM to 32.9 µM (7.2-fold).

`Cc1ccc(NC(=O)C(=O)C2C(=O)NC(=O)NC2=O)cc1C` and `CC(NC(=O)c1c(O)[nH]c(=S)[nH]c1=O)c1ccc([N+](=O)[O-])cc1` (configuration not stated) cannot be ordered by TGI: > 100 µM for the first, > 100 µM for the second.

`S=C1NCCN1C(=S)Nc1ccccc1` and `Cc1[nH]n(-c2nc(O)c(-c3ccccc3)c(=O)[nH]2)c(=O)c1CCO` cannot be ordered by TGI: > 100 µM for the first, > 100 µM for the second.

`C[n+]1c2ccccc2c(NC(CCCN=C(N)N)C(=O)O)c2ccccc21` (configuration not stated) and `CC(NC(=O)Cc1ccccc1)NC(=O)C(C)C(=O)NCc1ccccc1` (configuration not stated) cannot be ordered by TGI: > 100 µM for the first, > 100 µM for the second.

`CCOC(=O)c1ccc(-c2ccc(Cl)cc2)[nH]1` and `COc1ccc2nc3cc(Cl)ccc3c(Sc3ccc(NC(C)=O)cc3)c2c1` cannot be ordered by TGI: > 10 µM for the first, > 47 µM for the second.

`CC1CC(Nc2ccc(Br)cc2)N(C(=O)c2ccc(Br)cc2)O1` (configuration not stated) and `COc1ccc(N2C(=O)C(=O)N(c3ccc(N=Nc4ccccc4)cc3)C2=S)cc1` cannot be ordered by TGI: > 10 µM for the first, 34.1 µM for the second.

`OC(C/C=N/N=C/CC(O)(C(F)(F)Cl)C(F)(F)Cl)(C(F)(F)Cl)C(F)(F)Cl` and `COc1ccc(/C=N/N=C(\N)NO)c(OC)c1C` cannot be ordered by TGI: > 10 µM for the first, > 100 µM for the second.

`O=C1C=C(Nc2ccc(S(=O)(=O)Nc3nccs3)cc2)c2ccccc2C1=O` and `Nc1c(S(=O)(=O)c2ccccc2)c2nc3ccccc3nc2n2c1nc1ccccc12` cannot be ordered by TGI: > 100 µM for the first, > 100 µM for the second.

Compared with `Cc1cc(C)nc(NC(P(=O)(O)O)P(=O)(O)O)n1`, `Cc1ccc(CSC(N)=Nc2ccccc2)cc1C` is lower in TGI: > 100 µM for the first, 39 µM for the second.

`CCCC(=O)[O-].CCCC(=O)[O-].NCCN.NCCN.[Co+3].[O-][Cl+3]([O-])([O-])[O-]` and `COC(=O)[C@@H](NC(=O)N(Cc1ccccc1)C[C@H](CC(C)C)NC(=O)[C@@H](NC(=O)OC(C)(C)C)C(C)C)C(C)C` cannot be ordered by TGI: > 100 µM for the first, > 100 µM for the second.

First: O=C1CCSCCC(=O)Nc2ccccc2N1
Second: CC(=O)c1c(N=[N+]=[N-])c2cccc3c2n(c1=O)CCC3
The TGI of the first is higher: > 100 µM for the first, 35.1 µM for the second.

`COc1cccc(-c2nc(-c3cnccn3)n(C/C=C/c3ccccc3)n2)c1` and `NC1(CCNC(=O)c2ccccc2)CCN(C(=O)c2ccccc2)CC1` cannot be ordered by TGI: > 10 µM for the first, > 100 µM for the second.

With `O=C1C(Br)=CC2(C=C1Br)CCNC1=C2C(=O)c2ncccc2C1=O` the TGI was 1.46 µM.
